How the values were obtained:
Assay type in all cases: in vivo
Puccinia recondita [1] = test: Activity against Puccinia recondita on wheat (solution pipetted to seedlings in vermiculite); conditions: inoculated 7 days after treatment, 7 days incubation, control 80
Method: (§1) Activity Against Puccinia recondita on Wheat The active compounds were formulated as a stock solution in acetone at a concentration of 10 000 ppm. The stock solution was diluted with water to the stated active compound concentration. 1 ml of the respective solution was pipetted to wheat seedlings grown in vermiculite (10 to 12 seedlings per pot). 7 days after the treatment the wheat plants were inoculated with a spore suspension of Puccinia recondita. After 7 days of incubation, the extent of infection was determined visually in %. The concentration is given in g of active compound (g a.i.) per 100 kg of seeds.

Septoria tritici [2] = test: Activity against Septoria tritici on wheat (solution pipetted to seedlings in vermiculite); conditions: inoculated 7 days after treatment, 18 days incubation, control 60
Method: as §1, with “Against Septoria tritici” for “Against Puccinia recondita”, “active compound Ia.1 was” for “active compounds were”, “in dimethyl sulfoxide” for “in acetone”, “of Septoria tritici.” for “of Puccinia recondita.”, “After 18” for “After 7”

Septoria tritici [3] = test: Activity against Septoria tritici on wheat (seed treatment); conditions: inoculated 14 days after sowing, 24 days incubation, control 85
Method: (§2) Activity Against Septoria tritici on Wheat (Seed Treatment) 9.6 mg of the active compound Ia.90 was dissolved in 1 ml of acetone to give a stock solution. The stock solution was diluted with acetone to give the test solution. Aliquots of 4.8 g of wheat seeds were placed in glass vials, where they were treated in an air stream with 0.5 ml of the test solution containing the active compound. In each case, 10 grains were sown in pots of 8 cm diameter. Untreated grains served as control. 14 days after sowing, the wheat plants were inoculated with a spore suspension of Septoria tritici. After 24 days of incubation, the extent of infection was determined visually in %. The concentration is given in g of active compound (g a.i.) per 100 kg of seeds.

Septoria tritici [4] = test: Activity against Septoria tritici on wheat (seedlings treated, detached leaf portions on agar inoculated); conditions: wheat seedlings in vermiculite, leaf portions on agar inoculated 7 days after treatment, 18° C., 18 days incubation, control 100
Method: Activity Against Septoria tritici on Wheat The active compound Ia.1 was formulated as a stock solution in acetone at a concentration of 10 000 ppm. The stock solution was diluted with water to the stated active compound concentration. 1 ml of the respective solution was pipetted to wheat seedlings grown in vermiculite (10 to 12 seedlings per pot). 7 days after the treatment leaf portions of 5 cm length were placed in petri dishes filled with aqueous agar. The leaf portions were then inoculated with a spore suspension of Septoria tritici. The closed Petri dishes were incubated in a climatized test cabinet at 18° C. and 12 h light exposure per day. After 18 days of incubation, the extent of infection was determined visually in %. The concentration is given in g of active compound (g a.i.) per 100 kg of seeds.

Phakopsora pachyrhizi [5] = test: Activity against Phakopsora pachyrhizi on soybean (seed treatment); conditions: inoculated 14 days after sowing, 10 days incubation, control 87
Method: Activity Against Phakopsora pachyrhizi on soybean (Seed Treatment)
16 mg of the active compounds listed in table 3 were in each case dissolved in 1 ml of acetone to give a stock solution. The stock solution was diluted with acetone to give the test solution. Aliquots of 1.5 g of soybean seeds were placed in glass vials, where they were treated in an air stream with 0.6 ml of the test solution containing the active compound. In each case, 8 grains were sown in pots of 8 cm diameter. Untreated grains served as control. 14 days after sowing, the soybean plants were inoculated with a spore suspension of Phakopsora pachyrhizi. After 10 days of incubation, the extent of infection was determined visually in %. The concentration is given in g of active compound (g a.i.) per 100 kg of seeds.

Phakopsora pachyrhizi [6] = test: Activity against Phakopsora pachyrhizi on soybean (solution pipetted to seedlings in vermiculite); conditions: 250 g a.i./100 kg, inoculated 7 days after treatment, 14 days incubation, control 88
Method: Activity Against Phakopsora pachyrhizi on Soybean
The active compounds were formulated as a stock solution in dimethylsulfoxide at a concentration of 10 000 ppm. The stock solution was diluted with water to the stated active compound concentration. 1 ml of the respective solution was pipetted to soybean seedlings grown in vermiculite (1 seedling per pot). 7 days after the treatment the soybean plants were inoculated with a spore suspension of Phakopsora pachyrhizi. After 14 days of incubation, the extent of infection was determined visually in %. The concentration is given in g of active compound (g a.i.) per 100 kg of seeds.

Erysiphe graminis = test: Activity against Erysiphe graminis on wheat (solution pipetted to seedlings in vermiculite); conditions: inoculated 7 days after treatment, 7 days incubation, control 80
Method: as §1, with “Erysiphe graminis” for “Puccinia recondita”, “Erysiphe graminis.” for “Puccinia recondita.”

Puccinia recondita [7] = test: Activity against Puccinia recondita on wheat (seed treatment); conditions: 250 g a.i./100 kg seeds, inoculated 14 days after sowing, 7 days incubation, control 90
Method: as §2, with “Puccinia recondita” for “Septoria tritici”, “24” for “9.6”, “compounds listed in table 2 were in each case” for “compound Ia.90 was”, “1” for “0.5”, “14 days after sowing, the wheat plants were inoculated with a spore suspension of Septoria tritici.” left out, “7” for “24”

| SMILES | Infected leaf area (Puccinia recondita [1]; 125 g a.i./100 kg) | Infected leaf area (Puccinia recondita [1]; 250 g a.i./100 kg) | Infected leaf area (Septoria tritici [4]; 125 g a.i./100 kg) | Infected leaf area (Septoria tritici [4]; 250 g a.i./100 kg) | Infected leaf area (Erysiphe graminis; 125 g a.i./100 kg) | Infected leaf area (Erysiphe graminis; 250 g a.i./100 kg) | Infected leaf area (Puccinia recondita [7]) | also measured |
| --- | --- | --- | --- | --- | --- | --- | --- | --- |
| Cn1cc(C(=O)Nc2ccccc2-c2cc(F)c(F)c(F)c2)c(C(F)F)n1 [Ia.90] | 2% | 1% | 7% | 3% | 0% | 0% | 0% | Infected leaf area (Septoria tritici [2]; 125 g a.i./100 kg): 0%; Infected leaf area (Septoria tritici [2]; 250 g a.i./100 kg): 0%; Infected leaf area (Septoria tritici [3]; 25 g a.i./100 kg seeds): 1%; Infected leaf area (Septoria tritici [3]; 50 g a.i./100 kg seeds): 0%; Infected leaf area (Septoria tritici [3]; 100 g a.i./100 kg seeds): 0%; Infected leaf area (Phakopsora pachyrhizi [5]; 125 g a.i./100 kg seeds): 1%; Infected leaf area (Phakopsora pachyrhizi [5]; 250 g a.i./100 kg seeds): 2%; Infected leaf area (Phakopsora pachyrhizi [6]): 0% |
| Cn1cc(C(=O)Nc2ccccc2-c2cc(Cl)cc(Cl)c2)c(C(F)F)n1 [Ia.43] | 0% | 0% | – | – | 2% | 0% | – | – |
| O=C(Nc1ccccc1-c1ccc(OC(F)(F)F)cc1)c1cccnc1Cl [Id.55] | 0% | 0% | – | – | – | – | – | – |
| Cn1cc(C(=O)Nc2ccccc2-c2ccc(SC(F)(F)F)cc2)c(C(F)F)n1 [Ia.313] | 0% | 0% | 0% | 0% | 0% | 0% | – | – |
| Cn1cc(C(=O)Nc2ccccc2-c2cc(F)cc(F)c2)c(C(F)(F)F)n1 [Ia.245] | 0% | 0% | 0% | 0% | 0% | 0% | 19% | Infected leaf area (Phakopsora pachyrhizi [6]): 0% |
| Cn1cc(C(=O)Nc2ccccc2-c2cc(F)cc(Cl)c2)c(C(F)F)n1 [Ia.250] | 0% | 0% | – | – | – | – | – | – |
| Cn1cc(C(=O)Nc2ccccc2-c2cc(F)c(F)c(F)c2)c(C(F)(F)F)n1 [Ia.85] | 0% | 0% | 0% | 0% | 0% | 0% | 11% | – |
| Cn1cc(C(=O)Nc2ccccc2-c2ccccc2Cl)c(C(F)F)n1 [Ia.233] | 2% | 0% | 7% | 0% | – | – | – | – |
| Cn1cc(C(=O)Nc2ccccc2-c2cccc(C(F)(F)F)c2)c(C(F)(F)F)n1 [Ia.64] | 0% | 0% | – | – | – | – | – | – |
| Cn1cc(C(=O)Nc2ccccc2-c2ccc(Cl)cc2F)c(C(F)(F)F)n1 [Ia.57] | 0% | 0% | – | – | – | – | – | – |
| Cc1nn(C)c(Cl)c1C(=O)Nc1ccccc1-c1ccc(C(F)(F)F)cc1 [Ia.219] | 8% | 6% | – | – | – | – | – | – |
| Cn1cc(C(=O)Nc2ccccc2-c2cc(Cl)ccc2Cl)c(C(F)(F)F)n1 [Ia.255] | 0% | 0% | 3% | 3% | 0% | 0% | 38% | – |
| Cc1cc(-c2ccccc2NC(=O)c2cn(C)nc2C(F)(F)F)c(F)cc1Cl [Ia.84] | 0% | 0% | 3% | 3% | 0% | 0% | – | – |

Source: patent publication US20090264289A1, “Use of Arylcarboxylic Acid Biphenylamides for Seed Treatment” (BASF SE, priority 2006, published 2009)
